Experimental data taken from ChEMBL document CHEMBL4507324 (2021).

Assays:
Conditions in all cases: Compound concentration 100.0 nM
[1] = biological target: Inhibitor of nuclear factor kappa-B kinase subunit alpha (Homo sapiens) (UniProt O15111)
[2] = biological target: Serine/threonine-protein kinase/endoribonuclease IRE1 (Homo sapiens) (UniProt O75460)
[3] = biological target: Macrophage colony-stimulating factor 1 receptor (Homo sapiens) (UniProt P07333)
[4] = tested on: Tyrosine-protein kinase ABL1 (Homo sapiens), P00519 [Q252H]
[5] = biological target: Maternal embryonic leucine zipper kinase (Homo sapiens) (UniProt Q14680)
[6] = biological target: Serine/threonine-protein kinase SIK1 (Homo sapiens) (UniProt P57059)
[7] = biological target: Mast/stem cell growth factor receptor Kit (Homo sapiens) (UniProt P10721)
[8] = biological target: Misshapen-like kinase 1 (Homo sapiens) (UniProt Q8N4C8)
[9] = biological target: Serine/threonine-protein kinase 25 (Homo sapiens) (UniProt O00506)
[10] = biological target: Serine/threonine-protein kinase haspin (Homo sapiens) (UniProt Q8TF76)
[11] = biological target: Bone morphogenetic protein receptor type-1A (Homo sapiens) (UniProt P36894)
[12] = biological target: RAC-gamma serine/threonine-protein kinase (Homo sapiens) (UniProt Q9Y243)
[13] = biological target: Rho-associated protein kinase 2 (Homo sapiens) (UniProt O75116)
[14] = biological target: Myosin light chain kinase, smooth muscle (Homo sapiens) (UniProt Q15746)
[15] = biological target: Dual specificity tyrosine-phosphorylation-regulated kinase 2 (Homo sapiens) (UniProt Q92630)
[16] = biological target: Mitogen-activated protein kinase kinase kinase kinase 1 (Homo sapiens) (UniProt Q92918)
[17] = biological target: Megakaryocyte-associated tyrosine-protein kinase (Homo sapiens) (UniProt P42679)
[18] = biological target: Dual specificity mitogen-activated protein kinase kinase 3 (Homo sapiens) (UniProt P46734)
[19] = biological target: MAP kinase-interacting serine/threonine-protein kinase 1 (Homo sapiens) (UniProt Q9BUB5)
[20] = biological target: Serine/threonine-protein kinase SBK1 (Homo sapiens) (UniProt Q52WX2)
[21] = biological target: Microtubule-associated serine/threonine-protein kinase 1 (Homo sapiens) (UniProt Q9Y2H9)
[22] = biological target: Serine/threonine-protein kinase DCLK2 (Homo sapiens) (UniProt Q8N568)
[23] = biological target: Serine/threonine-protein kinase Nek5 (Homo sapiens) (UniProt Q6P3R8)
[24] = biological target: Ribosomal protein S6 kinase alpha-2 (Homo sapiens) (UniProt Q15349)
[25] = biological target: SRSF protein kinase 1 (Homo sapiens) (UniProt Q96SB4)
[26] = tested on: Tyrosine-protein kinase ABL1 (Homo sapiens), P00519 [H396P]
[27] = biological target: Wee1-like protein kinase 2 (Homo sapiens) (UniProt P0C1S8)
[28] = biological target: SRSF protein kinase 3 (Homo sapiens) (UniProt Q9UPE1)
[29] = tested on: Phosphatidylinositol 4,5-bisphosphate 3-kinase catalytic subunit alpha isoform (Homo sapiens), P42336 [E545A]
[30] = biological target: Cyclin-dependent kinase 7 (Homo sapiens) (UniProt P50613)
[31] = biological target: Serine/threonine-protein kinase Chk2 (Homo sapiens, UniProt O96017)
[32] = biological target: Casein kinase II subunit alpha' (Homo sapiens) (UniProt P19784)
[33] = biological target: Serine/threonine-protein kinase VRK2 (Homo sapiens) (UniProt Q86Y07)
[34] = biological target: Serine/threonine-protein kinase RIO3 (Homo sapiens) (UniProt O14730)
[35] = biological target: Death-associated protein kinase 3 (Homo sapiens) (UniProt O43293)
[36] = biological target: Serine/threonine-protein kinase PAK 2 (Homo sapiens) (UniProt Q13177)
[37] = biological target: Serine/threonine-protein kinase ULK2 (Homo sapiens) (UniProt Q8IYT8)
[38] = biological target: Tyrosine-protein kinase BTK (Homo sapiens) (UniProt Q06187)
[39] = biological target: Serine/threonine-protein kinase 36 (Homo sapiens) (UniProt Q9NRP7)
[40] = biological target: Mitogen-activated protein kinase kinase kinase 20 (Homo sapiens) (UniProt Q9NYL2)
[41] = tested on: Phosphatidylinositol 4,5-bisphosphate 3-kinase catalytic subunit alpha isoform (Homo sapiens), P42336 [H1047L]
[42] = biological target: Serine/threonine-protein kinase Sgk3 (Homo sapiens) (UniProt Q96BR1)
[43] = biological target: Ribosomal protein S6 kinase alpha-6 (Homo sapiens) (UniProt Q9UK32)
[44] = biological target: Activin receptor type-2A (Homo sapiens) (UniProt P27037)
[45] = biological target: Ribosomal protein S6 kinase alpha-6 (Homo sapiens) (UniProt Q9UK32); remark: listed apart in the source

Chain of Ribosomal protein S6 kinase alpha-6 (Homo sapiens) (Q9UK32 whole entry): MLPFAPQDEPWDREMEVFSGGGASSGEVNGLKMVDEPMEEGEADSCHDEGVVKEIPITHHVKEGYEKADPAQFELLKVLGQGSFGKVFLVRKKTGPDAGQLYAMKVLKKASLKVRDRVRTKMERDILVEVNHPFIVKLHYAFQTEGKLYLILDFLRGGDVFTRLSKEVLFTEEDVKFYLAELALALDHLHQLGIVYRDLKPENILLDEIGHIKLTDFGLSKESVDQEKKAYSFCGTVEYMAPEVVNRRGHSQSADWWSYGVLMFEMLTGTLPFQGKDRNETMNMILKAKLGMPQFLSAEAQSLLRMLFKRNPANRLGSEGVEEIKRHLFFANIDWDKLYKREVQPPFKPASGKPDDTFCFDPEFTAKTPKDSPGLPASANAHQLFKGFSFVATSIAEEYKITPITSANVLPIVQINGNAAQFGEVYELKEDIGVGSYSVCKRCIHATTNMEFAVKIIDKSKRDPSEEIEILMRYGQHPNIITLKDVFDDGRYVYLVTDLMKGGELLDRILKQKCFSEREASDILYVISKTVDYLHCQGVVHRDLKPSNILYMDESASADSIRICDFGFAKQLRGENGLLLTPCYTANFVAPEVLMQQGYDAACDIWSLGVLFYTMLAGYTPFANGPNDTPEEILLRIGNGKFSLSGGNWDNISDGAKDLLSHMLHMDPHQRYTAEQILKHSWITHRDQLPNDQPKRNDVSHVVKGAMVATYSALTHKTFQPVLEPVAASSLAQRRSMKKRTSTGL
Chain of Misshapen-like kinase 1 (Homo sapiens) (Q8N4C8 whole entry, looked up): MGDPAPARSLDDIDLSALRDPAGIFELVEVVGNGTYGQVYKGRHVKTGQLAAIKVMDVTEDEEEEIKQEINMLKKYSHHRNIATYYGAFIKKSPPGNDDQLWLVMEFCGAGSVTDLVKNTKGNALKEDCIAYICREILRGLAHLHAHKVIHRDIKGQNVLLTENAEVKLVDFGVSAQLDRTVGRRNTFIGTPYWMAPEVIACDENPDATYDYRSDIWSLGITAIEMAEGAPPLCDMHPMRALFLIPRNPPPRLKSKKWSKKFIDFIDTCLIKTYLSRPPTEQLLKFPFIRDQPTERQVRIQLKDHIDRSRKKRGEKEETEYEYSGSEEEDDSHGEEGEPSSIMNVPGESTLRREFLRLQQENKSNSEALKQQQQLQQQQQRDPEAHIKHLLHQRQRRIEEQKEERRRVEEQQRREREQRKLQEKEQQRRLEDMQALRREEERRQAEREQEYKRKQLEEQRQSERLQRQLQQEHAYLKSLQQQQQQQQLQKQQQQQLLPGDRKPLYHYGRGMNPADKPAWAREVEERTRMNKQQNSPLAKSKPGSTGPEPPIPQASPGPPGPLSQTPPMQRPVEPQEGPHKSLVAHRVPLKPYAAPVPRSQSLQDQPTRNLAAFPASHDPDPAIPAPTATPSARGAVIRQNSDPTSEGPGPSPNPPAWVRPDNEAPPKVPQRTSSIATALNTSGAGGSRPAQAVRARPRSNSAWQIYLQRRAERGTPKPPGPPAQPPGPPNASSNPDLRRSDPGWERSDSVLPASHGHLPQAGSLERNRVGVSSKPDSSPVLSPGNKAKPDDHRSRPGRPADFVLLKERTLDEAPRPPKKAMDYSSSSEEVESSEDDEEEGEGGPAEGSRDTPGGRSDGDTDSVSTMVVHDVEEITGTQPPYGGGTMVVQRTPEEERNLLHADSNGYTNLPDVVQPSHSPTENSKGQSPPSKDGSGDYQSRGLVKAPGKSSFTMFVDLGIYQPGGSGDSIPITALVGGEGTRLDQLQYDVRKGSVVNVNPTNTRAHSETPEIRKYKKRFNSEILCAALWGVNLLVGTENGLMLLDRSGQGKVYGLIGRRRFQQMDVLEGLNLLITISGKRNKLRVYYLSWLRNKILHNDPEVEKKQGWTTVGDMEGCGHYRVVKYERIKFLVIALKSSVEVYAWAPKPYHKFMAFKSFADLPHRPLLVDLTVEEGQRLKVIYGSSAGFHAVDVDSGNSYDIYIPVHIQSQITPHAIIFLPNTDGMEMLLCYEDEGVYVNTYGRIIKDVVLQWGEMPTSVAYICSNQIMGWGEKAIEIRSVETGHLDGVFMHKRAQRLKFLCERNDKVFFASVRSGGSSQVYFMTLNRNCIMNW
Chain of Serine/threonine-protein kinase/endoribonuclease IRE1 (Homo sapiens) (O75460 19-977 limits assumed): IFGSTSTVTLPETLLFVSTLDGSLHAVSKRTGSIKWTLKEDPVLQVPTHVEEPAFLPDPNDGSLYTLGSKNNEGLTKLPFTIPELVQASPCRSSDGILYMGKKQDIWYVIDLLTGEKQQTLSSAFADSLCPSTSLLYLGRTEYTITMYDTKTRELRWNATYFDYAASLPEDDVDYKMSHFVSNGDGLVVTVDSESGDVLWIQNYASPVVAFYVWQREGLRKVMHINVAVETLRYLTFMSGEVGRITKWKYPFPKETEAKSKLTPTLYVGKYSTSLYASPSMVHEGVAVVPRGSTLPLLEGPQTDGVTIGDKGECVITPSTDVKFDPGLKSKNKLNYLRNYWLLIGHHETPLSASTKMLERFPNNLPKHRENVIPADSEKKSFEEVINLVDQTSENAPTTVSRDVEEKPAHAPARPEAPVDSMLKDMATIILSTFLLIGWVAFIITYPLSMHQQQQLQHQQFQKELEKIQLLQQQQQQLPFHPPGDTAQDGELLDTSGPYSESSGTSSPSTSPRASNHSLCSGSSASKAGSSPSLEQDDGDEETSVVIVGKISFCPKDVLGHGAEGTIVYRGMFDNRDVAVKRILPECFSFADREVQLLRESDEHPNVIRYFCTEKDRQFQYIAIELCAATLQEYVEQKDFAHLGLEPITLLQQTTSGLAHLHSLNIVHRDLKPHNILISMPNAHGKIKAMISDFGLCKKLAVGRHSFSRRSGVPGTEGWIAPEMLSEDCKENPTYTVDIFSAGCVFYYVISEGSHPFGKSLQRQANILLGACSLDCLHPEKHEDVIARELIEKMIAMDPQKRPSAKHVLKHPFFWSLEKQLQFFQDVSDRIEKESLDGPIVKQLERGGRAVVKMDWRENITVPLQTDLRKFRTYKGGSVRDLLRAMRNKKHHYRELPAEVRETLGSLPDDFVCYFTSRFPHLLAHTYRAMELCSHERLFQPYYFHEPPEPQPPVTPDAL
Chain of Dual specificity mitogen-activated protein kinase kinase 3 (Homo sapiens) (P46734 whole entry): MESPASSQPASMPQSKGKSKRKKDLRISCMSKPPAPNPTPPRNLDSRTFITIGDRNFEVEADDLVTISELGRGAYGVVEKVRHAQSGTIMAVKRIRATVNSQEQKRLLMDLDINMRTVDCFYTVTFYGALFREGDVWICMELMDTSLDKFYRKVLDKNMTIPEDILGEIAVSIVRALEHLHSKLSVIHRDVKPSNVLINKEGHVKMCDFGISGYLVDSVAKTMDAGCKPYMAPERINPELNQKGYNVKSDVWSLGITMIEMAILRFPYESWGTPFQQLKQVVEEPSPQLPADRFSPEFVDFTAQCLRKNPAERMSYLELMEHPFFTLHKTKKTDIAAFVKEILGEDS
Chain of Phosphatidylinositol 4,5-bisphosphate 3-kinase catalytic subunit alpha isoform (Homo sapiens), P42336 [E545A] (P42336 whole entry E545A, canonical isoform): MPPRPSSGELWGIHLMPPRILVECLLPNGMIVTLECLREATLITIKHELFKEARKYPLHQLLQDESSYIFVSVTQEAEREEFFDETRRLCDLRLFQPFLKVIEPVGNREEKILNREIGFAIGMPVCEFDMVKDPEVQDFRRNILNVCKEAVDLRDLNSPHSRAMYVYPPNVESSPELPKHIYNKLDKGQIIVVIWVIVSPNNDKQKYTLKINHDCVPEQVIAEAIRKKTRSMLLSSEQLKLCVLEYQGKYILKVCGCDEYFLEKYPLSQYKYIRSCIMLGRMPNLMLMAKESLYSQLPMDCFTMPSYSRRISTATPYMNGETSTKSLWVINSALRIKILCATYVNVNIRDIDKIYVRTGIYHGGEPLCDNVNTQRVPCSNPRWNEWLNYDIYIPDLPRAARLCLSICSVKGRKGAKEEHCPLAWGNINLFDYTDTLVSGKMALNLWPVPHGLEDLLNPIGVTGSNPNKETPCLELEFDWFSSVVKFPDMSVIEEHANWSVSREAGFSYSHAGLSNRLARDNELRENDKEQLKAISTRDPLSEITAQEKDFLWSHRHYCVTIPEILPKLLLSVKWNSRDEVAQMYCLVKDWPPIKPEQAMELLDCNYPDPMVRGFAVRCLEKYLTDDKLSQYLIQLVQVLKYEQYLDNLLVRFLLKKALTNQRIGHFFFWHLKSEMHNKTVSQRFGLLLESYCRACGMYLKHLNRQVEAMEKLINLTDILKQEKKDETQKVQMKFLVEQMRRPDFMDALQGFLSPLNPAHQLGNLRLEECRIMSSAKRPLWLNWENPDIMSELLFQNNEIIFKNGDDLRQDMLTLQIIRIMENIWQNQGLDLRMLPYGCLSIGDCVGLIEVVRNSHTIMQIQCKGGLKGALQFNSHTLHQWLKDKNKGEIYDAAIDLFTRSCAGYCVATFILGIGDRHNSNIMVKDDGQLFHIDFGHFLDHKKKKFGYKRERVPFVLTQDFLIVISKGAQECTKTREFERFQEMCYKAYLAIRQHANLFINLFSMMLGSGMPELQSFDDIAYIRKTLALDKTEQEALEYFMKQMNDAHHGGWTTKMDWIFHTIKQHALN
Chain of Death-associated protein kinase 3 (Homo sapiens) (O43293 whole entry, looked up): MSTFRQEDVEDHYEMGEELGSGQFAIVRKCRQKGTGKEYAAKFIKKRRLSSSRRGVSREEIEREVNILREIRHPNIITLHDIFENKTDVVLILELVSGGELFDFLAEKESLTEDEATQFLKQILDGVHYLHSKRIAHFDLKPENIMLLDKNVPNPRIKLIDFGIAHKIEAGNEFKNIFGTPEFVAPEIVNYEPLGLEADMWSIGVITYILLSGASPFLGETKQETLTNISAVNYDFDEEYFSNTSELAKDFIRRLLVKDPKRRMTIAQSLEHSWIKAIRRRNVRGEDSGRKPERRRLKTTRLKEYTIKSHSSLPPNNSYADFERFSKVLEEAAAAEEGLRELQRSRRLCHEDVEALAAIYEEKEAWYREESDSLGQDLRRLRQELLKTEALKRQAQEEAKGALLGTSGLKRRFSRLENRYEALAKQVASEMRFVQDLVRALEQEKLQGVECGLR
Chain of Phosphatidylinositol 4,5-bisphosphate 3-kinase catalytic subunit alpha isoform (Homo sapiens), P42336 [H1047L] (P42336 whole entry H1047L, canonical isoform): as the sequence (P42336 whole entry E545A, canonical isoform) above, with A545E, H1047L counted along it

CS(=O)(=O)N1CCCC(NC(=O)[C@H](CCC2CCCCC2)NC(=O)c2ccc(CNc3ncnc4c3nnn4-c3ccccc3)cc2)C1 (stereo not given in full) [SR-301]
residual activity [1]: 100% | residual activity [2]: 100% | residual activity [3]: 100% | residual activity [4]: 95% | residual activity [5]: 100% | residual activity [6]: 100% | residual activity [7]: 100% | residual activity [8]: 85% | residual activity [9]: 90% | residual activity [10]: 100% | residual activity [11]: 90% | residual activity [12]: 86% | residual activity [13]: 100% | residual activity [14]: 100% | residual activity [15]: 100% | residual activity [16]: 100% | residual activity [17]: 100% | residual activity [18]: 85% | residual activity [19]: 86% | residual activity [20]: 82% | residual activity [21]: 100% | residual activity [22]: 95% | residual activity [23]: 95% | residual activity [24]: 100% | residual activity [25]: 78% | residual activity [26]: 99% | residual activity [27]: 100% | residual activity [28]: 100% | residual activity [29]: 100% | residual activity [30]: 100% | residual activity [31]: 100% | residual activity [32]: 85% | residual activity [33]: 91% | residual activity [34]: 88% | residual activity [35]: 88% | residual activity [36]: 100% | residual activity [37]: 100% | residual activity [38]: 100% | residual activity [39]: 97% | residual activity [40]: 89% | residual activity [41]: 76% | residual activity [42]: 83% | residual activity [43]: 100% | residual activity [44]: 68% | residual activity [45]: 100%

CS(=O)(=O)N1CCCC(NC(=O)[C@H](CCC2CCCCC2)NC(=O)c2ccc(CNC(=O)c3cnc4ccccn34)cc2)C1 (stereo not given in full) [SR-302]
residual activity [1]: 100% | residual activity [2]: 100% | residual activity [3]: 100% | residual activity [4]: 88% | residual activity [5]: 100% | residual activity [6]: 92% | residual activity [7]: 100% | residual activity [8]: 85% | residual activity [9]: 100% | residual activity [10]: 74% | residual activity [11]: 94% | residual activity [12]: 100% | residual activity [13]: 100% | residual activity [14]: 100% | residual activity [15]: 100% | residual activity [16]: 95% | residual activity [17]: 100% | residual activity [18]: 100% | residual activity [19]: 100% | residual activity [20]: 77% | residual activity [21]: 94% | residual activity [22]: 100% | residual activity [23]: 89% | residual activity [24]: 80% | residual activity [25]: 74% | residual activity [26]: 35% | residual activity [27]: 97% | residual activity [28]: 100% | residual activity [29]: 99% | residual activity [30]: 100% | residual activity [31]: 37% | residual activity [32]: 100% | residual activity [33]: 76% | residual activity [34]: 97% | residual activity [35]: 90% | residual activity [36]: 93% | residual activity [37]: 100% | residual activity [38]: 100% | residual activity [39]: 100% | residual activity [40]: 79% | residual activity [41]: 100% | residual activity [42]: 74% | residual activity [43]: 82% | residual activity [44]: 100% | residual activity [45]: 97%
